The supplement of paper PMC5908809

How the values were obtained:
[1] = system: normal NK cells expanded with K562-aAPC; assay: percent inhibition of viability; higher = more inhibition; conditions: 72 h, IL-2 2.5 ng/mL
Procedure: (§1)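 Drug sensitivity and resistance testing on K562-aAPC-expanded normal NK cells: 5 concentrations (10-fold steps over a 10,000-fold range), 72 h at 37 °C, viability by CellTiter-Glo normalised to DMSO and benzethonium chloride controls; DSS from the fitted curve.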

DERL-7 (IL-2 2.5 ng/mL) [2] = assay: as above; conditions: 72 h
IMC-1 (IL-2 20 ng/mL) [3] = assay: as above; conditions: 72 h
KAI3 (IL-2 2.5 ng/mL) [4] = assay: as above; conditions: 72 h
KHYG-1 (IL-2 2.5 ng/mL) [5] = assay: as above; conditions: 72 h
NK-92 (IL-2 2.5 ng/mL) [6] = assay: as above; conditions: 72 h
NK-YS (IL-2 2.5 ng/mL) [7] = assay: as above; conditions: 72 h
NKL (IL-2 2.5 ng/mL) [8] = assay: as above; conditions: 72 h
SNK-6 (IL-2 2.5 ng/mL) [9] = assay: as above; conditions: 72 h
YT (IL-2 2.5 ng/mL) [10] = assay: as above; conditions: 72 h
[11] = system: normal primary NK cells, pool 1 (3 donors) (IL-2 2.5 ng/mL); assay: as above; conditions: 72 h
[12] = system: normal primary NK cells, pool 1 (3 donors), resting (IL-2 0 ng/mL); assay: as above; conditions: 72 h
[13] = system: normal primary NK cells, pool 2 (3 donors) (IL-2 2.5 ng/mL); assay: as above; conditions: 72 h
[14] = system: normal primary NK cells, pool 3 (3 donors) (IL-2 2.5 ng/mL); assay: as above; conditions: 72 h
[15] = system: normal NK cells expanded with K562-aAPC; assay: drug sensitivity score (DSS) (DSS units); higher = more sensitive; extreme values may be limits of the assay; conditions: 72 h; IL-2 2.5 ng/mL
Procedure: as §1

DERL-7 (IL-2 2.5 ng/mL) [16] = assay: as above; conditions: 72 h
IMC-1 (IL-2 20 ng/mL) [17] = assay: as above; conditions: 72 h
KAI3 (IL-2 2.5 ng/mL) [18] = assay: as above; conditions: 72 h
KHYG-1 (IL-2 2.5 ng/mL) [19] = assay: as above; conditions: 72 h
NK-92 (IL-2 2.5 ng/mL) [20] = assay: as above; conditions: 72 h
NK-YS (IL-2 2.5 ng/mL) [21] = assay: as above; conditions: 72 h
NKL (IL-2 2.5 ng/mL) [22] = assay: as above; conditions: 72 h
SNK-6 (IL-2 2.5 ng/mL) [23] = assay: as above; conditions: 72 h
YT (IL-2 2.5 ng/mL) [24] = assay: as above; conditions: 72 h
[25] = system: normal primary NK cells, pool 1 (3 donors) (IL-2 2.5 ng/mL); assay: as above; conditions: 72 h
[26] = system: normal primary NK cells, pool 1 (3 donors), resting (IL-2 0 ng/mL); assay: as above; conditions: 72 h
[27] = system: normal primary NK cells, pool 2 (3 donors) (IL-2 2.5 ng/mL); assay: as above; conditions: 72 h
[28] = system: normal primary NK cells, pool 3 (3 donors) (IL-2 2.5 ng/mL); assay: as above; conditions: 72 h

CCCCC(=O)OCC(=O)[C@]1(O)Cc2c(O)c3c(c(O)c2[C@@H](O[C@H]2C[C@H](NC(=O)C(F)(F)F)[C@H](O)[C@H](C)O2)C1)C(=O)c1c(OC)cccc1C3=O [Valrubicin] (max concentration tested 5000 nM)
percent inhibition of viability [%]
Conditions	0.5 nM	5 nM	50 nM	500 nM	5000 nM
DERL-7 (IL-2 2.5 ng/mL) [2]	1.97	-4.8	35.6	99.1	101
IMC-1 (IL-2 20 ng/mL) [3]	-8.69	1.1	16.2	99.5	101
KAI3 (IL-2 2.5 ng/mL) [4]	-21.3	-1.05	42.1	62.3	85.2
KHYG-1 (IL-2 2.5 ng/mL) [5]	-6.36	1.91	9.03	89.6	109
NK-92 (IL-2 2.5 ng/mL) [6]	-14.1	-10.7	10	89.7	105
NK-YS (IL-2 2.5 ng/mL) [7]	-5.71	4.57	40.3	86.6	101
NKL (IL-2 2.5 ng/mL) [8]	-11.4	33.3	101	105	109
SNK-6 (IL-2 2.5 ng/mL) [9]	10.3	28.7	23	89.2	86
YT (IL-2 2.5 ng/mL) [10]	-0.05	4.95	0.64	87.1	109
[1]	-4.09	-1.21	4.69	55.8	101
[11]	2.9	-5.69	4.41	76	97.4
[12]	-3.66	-27.1	-0.41	88.2	92.3
[13]	-13.8	-9.19	12.8	67.3	95.2
[14]	-11.9	-6.83	15.7	53.2	98.4

Conditions	drug sensitivity score
DERL-7 (IL-2 2.5 ng/mL) [16]	22.9
IMC-1 (IL-2 20 ng/mL) [17]	20.7
KAI3 (IL-2 2.5 ng/mL) [18]	17.4
KHYG-1 (IL-2 2.5 ng/mL) [19]	17.5
NK-92 (IL-2 2.5 ng/mL) [20]	17.7
NK-YS (IL-2 2.5 ng/mL) [21]	21
NKL (IL-2 2.5 ng/mL) [22]	35.2
SNK-6 (IL-2 2.5 ng/mL) [23]	18.6
YT (IL-2 2.5 ng/mL) [24]	15.8
[15]	12.2
[25]	14.7
[26]	16.1
[27]	14.2
[28]	12.3

COc1cc2/c(=N/c3ccc(Br)cc3F)nc[nH]c2cc1OCC1CCN(C)CC1 [Vandetanib] (max concentration tested 1000 nM)
percent inhibition of viability [%]
Conditions	0.1 nM	1 nM	10 nM	100 nM	1000 nM
DERL-7 (IL-2 2.5 ng/mL) [2]	-0.64	-4.35	-15.9	-3.72	3.05
IMC-1 (IL-2 20 ng/mL) [3]	-1	-1.11	2.06	4.13	13.1
KAI3 (IL-2 2.5 ng/mL) [4]	0.12	-3.68	-0.86	-6.05	18.6
KHYG-1 (IL-2 2.5 ng/mL) [5]	-1.45	0.56	5.16	2.56	12.2
NK-92 (IL-2 2.5 ng/mL) [6]	-4.34	-9.89	-2.18	-8.76	7.58
NK-YS (IL-2 2.5 ng/mL) [7]	-3.92	-3.47	0.22	0.66	11.3
NKL (IL-2 2.5 ng/mL) [8]	-13.3	-15.3	-10	2.48	9
SNK-6 (IL-2 2.5 ng/mL) [9]	12.7	14.6	14.3	33.2	24.4
YT (IL-2 2.5 ng/mL) [10]	2.5	1.99	6.02	-0.29	12.9
[1]	-8.6	1.05	-3.45	6.91	29.5
[11]	-5.01	-0.24	-7.43	-15.2	2.01
[12]	7.75	-11.8	-1.4	-19.4	11.2
[13]	-2.11	0.59	-1.27	-7.23	12.3
[14]	-11.4	-7.39	-2.76	-1.3	-0.41

Conditions	drug sensitivity score
DERL-7 (IL-2 2.5 ng/mL) [16]	0
IMC-1 (IL-2 20 ng/mL) [17]	0.22
KAI3 (IL-2 2.5 ng/mL) [18]	0.3
KHYG-1 (IL-2 2.5 ng/mL) [19]	0
NK-92 (IL-2 2.5 ng/mL) [20]	0
NK-YS (IL-2 2.5 ng/mL) [21]	0.03
NKL (IL-2 2.5 ng/mL) [22]	0
SNK-6 (IL-2 2.5 ng/mL) [23]	7.25
YT (IL-2 2.5 ng/mL) [24]	0.08
[15]	2.32
[25]	0
[26]	0
[27]	0.01
[28]	0
